Assays:
TGF-β1 [1] = target: T1, TGF-β1 (Homo sapiens, UniProt P01137); experiment: GAG-binding plate assay; settings: wells coated with 5 μg/ml GAG
T1 construct: full length mature TGF-β1 is 112 amino acids in length
Description: GAGs are immobilized in each well and then challenged with TGF-β1 according to the manufacturer's instructions. Briefly, triplicate wells are first pre-coated with 5 μg/ml of heparin, HS^PM, HS16^+ve or HS16^−ve in standard assay buffer (SAB: 100 mM NaCl, 50 mM sodium acetate, 0.2% v/v Tween 20, pH 7.2), and then incubated overnight at room temperature. The plates are next washed carefully three times with SAB, blocked with 250 μl of blocking solution (0.4% w/v fish skin gelatine, Sigma-Aldrich, in SAB) and incubated for 1 h at 37° C. TGF-β1 was then dissolved in blocking solution at a concentration of 100, 200, or 400 ng/ml. The plates are washed three times with SAB and each dilution of protein (200 μl) is dispensed into triplicate wells and incubated for 2 h at 37° C., rinsed with SAB and 200 μl of 750 ng/ml monoclonal mouse anti-TGF-β1 antibody (MAB2401, R&D Systems) added in blocking solution. Plates are then incubated for 1 h at 37° C., washed with SAB, and 200 μl of 1 μg/ml polyclonal goat anti-mouse biotinylated antibody (ab6788, Abcam) added in blocking solution. Again, plates are incubated for 1 h at 37° C., washed with SAB, and 200 μl of 220 ng/ml ExtrAvidin AP (Sigma-Aldrich) is added in blocking solution, incubated for 30 min at 37° C., and then rinsed with SAB. Finally, 200 μl of development reagent (SigmaFAST p-Nitrophenyl phosphate, Sigma-Aldrich) is added, incubated at 37° C. for 40 min and read at 405 nm within 1 h.
To determine the ability of TGF-β1 to bind to heparin, we utilized positively-charged GAG-binding plates (Iduron) as a capture substrate. GAGs were immobilized in each well and then challenged with TGF-β1 according to the manufacturer's instructions. Briefly, triplicate wells were first pre-coated with 5 μg/ml of full length heparin, size-fractionated heparin (dp14, 16, 18, 20, 22 and 24) or selectively […] heparin prepared in standard assay buffer (SAB: 100 mM NaCl, 50 mM sodium acetate, 0.2% v/v Tween 20, pH 7.2), and then incubated overnight at room temperature. The plates were next washed carefully three times with SAB, blocked with 250 μl of blocking solution (0.4% w/v fish skin gelatine, Sigma-Aldrich, in SAB) and incubated for 1 h at 37° C. TGF-β1 was then dissolved in blocking solution at a concentration of 100, 200, or 400 ng/ml. The plates were washed three times with SAB and each dilution of protein (200 μl) was dispensed into triplicate wells and incubated for 2 h at 37° C., rinsed with SAB and 200 μl of 750 ng/ml monoclonal mouse anti-TGF-β1 antibody (MAB2401, R&D Systems) added in blocking solution. […] Finally, 200 μl of development reagent (SigmaFAST p-Nitrophenyl phosphate, Sigma-Aldrich) was added, incubated at 37° C. for 40 min and read at 405 nm within 1 h.

[2] = test system: TGF-β1 signaling (pSMAD2, pSMAD3) in hMSCs; experiment: Western blotting of pSMAD2/pSMAD3 in hMSCs treated with TGF-β1 and GAG; type: cell-based, human; settings: TGF-β1 1 ng/ml pre-incubated with 10 μg/ml GAG; 6 h
Description: Primary hMSCs (Lonza) were isolated from the bone marrow mononuclear cells of a young healthy adult human donor by plastic adherence and characterized as previously described (30,31). The adherent cells were maintained in a basal media consisting of DMEM-low glucose (1000 mg/l, DMEM-LG) supplemented with 10% fetal calf serum, 100 U/ml penicillin, 100 μg/ml streptomycin and 2 mM L-glutamine, and cultured under standard conditions at 37° C. and 5% CO2 in a humidified atmosphere. Media replacement was every three days. Cells were detached with 0.125% trypsin/Versene (pH 7.0) upon reaching 75-80% confluence, and re-plated at a density of 3,000 cells/cm^2 under the same culture conditions. All experiments were carried out with cells at passage 5.
Human MSCs were cultured in 6-well plates in basal media for 24 h at a density of 10,000 cells/cm^2. TGF-β1 treatments were then prepared at either 1 ng/ml or 5 ng/ml alone or in the presence of either 10 μg/ml or 40 μg/ml of full length heparin, or 1 ng/ml of TGF-β1 with 10 μg/ml size-fractionated or selectively desulfated heparin, HS^PM, HS16+ or HS16−, and incubated at room temperature for 10 min before being added to the cells. Latent TGF-β1 (LTGF-β1) treatments were similarly prepared at 3.3 ng/ml alone or with 10 μg/ml of the various GAGs described above. For inhibitor studies, the cells were pre-treated for 30 min with 10 μM SB431542 (Sigma-Aldrich) or DMSO before treatment with TGF-β1. […] Samples were then immunoblotted with antibodies against SMAD2/3 (#3102, Cell Signaling), phosphorylated SMAD2 (pSMAD2, #3108, Cell Signaling), phosphorylated SMAD3 (pSMAD3, #9520, Cell Signaling) and actin (MAB1501R, Millipore). Densitometry was carried out using Quantity One software (version 4.6.6, Bio-Rad).

TGF-β1 [3] = target: T1, TGF-β1; experiment: SPR competitive binding: soluble GAG competes for TGF-β1 against heparin-coated chip; settings: for ability to competitively inhibit TGF-β1 binding to immobilized heparin: 200 nM TGF-β1 pre-incubated with 5 or 10 μg GAG
Description: Biotinylated heparin was prepared based on the protocol reported by Hernaiz et al. (33). Briefly, 20 mg of heparin was filter-sterilized (0.22 μm) in 1 ml of water and incubated with 8.6 μmol of N-hydroxysuccinimide-biotin (NHS-biotin) (Pierce) in 20 μl of dimethyl sulfoxide (DMSO) for 2 h at 4° C. The biotinylated heparin was then extensively dialyzed (7000 MWCO) to remove unreacted biotin. Immobilization of the biotinylated heparin onto a streptavidin (SA) sensor chip (GE Healthcare) was carried out using the immobilization wizard on the Biacore T100 (GE Healthcare) with a targeted immobilization level of approximately 40 response units (RUs). HBS-EP running buffer (10 mM HEPES, 150 mM NaCl, 3.0 mM EDTA, 0.05% (v/v) Tween 20, pH 7.4) was used for the immobilization.
TGF-β1-heparin interactions were effected by preparing a series of TGF-β1 protein samples (50 to 800 nM final concentration) diluted in HBS-EP-0.1 running buffer (0.1% instead of 0.05% (v/v) Tween 20). […] The sample solutions were then injected over the heparin-coated chip at a flow rate of 30 μl/min for 120 s, with HBS-EP-0.1 being subsequently passed over the chip for a further 1200 s to monitor TGF-β1 dissociation. After dissociation, the sensor surface on the chip was regenerated by 2 washes of 2 M NaCl injected at 30 μl/min for 60 s. The response was measured as a function of time (sensogram) at 25° C. The maximum binding response for each condition was normalized to the response obtained from TGF-β1 alone.

[4] = test system: chondrogenic differentiation of hMSCs; experiment: qPCR of day 3 chondrogenic micromass pellets (Example 1); type: cell-based, human; settings: 3-day old pellets; SB431542 10 μM vs DMSO
Description: Chondrogenic differentiation was carried out using a modified micromass culture system as described by Zhang et al. (32). Briefly, passage 4 hMSCs were harvested and resuspended in chemically defined chondrogenic media (PT-3003, Lonza) at 2×10^7 cells/ml. Droplets of 12.5 μl were then seeded into the middle of each well in a 24-well plate and left to adhere at 37° C. for 2 h, after which, 500 μl of chondrogenic media supplemented with either 10 ng/ml of TGF-β1 (100-21C, PeproTech) alone (Media) or TGF-β1 with 10 μg/ml of heparin (Sigma-Aldrich) (Media+Hep) was added to each well. The cell droplets coalesced into spherical masses after 24 h and the micromasses harvested on day 3. Human MSCs were cultured in 6-well plates in basal media for 24 h at a density of 10,000 cells/cm^2. TGF-β1 treatments were then prepared at either 1 ng/ml or 5 ng/ml alone or in the presence of either 10 μg/ml or 40 μg/ml of full length heparin, or 1 ng/ml of TGF-β1 with 10 μg/ml size-fractionated or selectively desulfated heparin, HS^PM, HS16+ or HS16−, and incubated at room temperature for 10 min before being added to the cells. Latent TGF-β1 (LTGF-β1) treatments were similarly prepared at 3.3 ng/ml alone or with 10 μg/ml of the various GAGs described above. For inhibitor studies, the cells were pre-treated for 30 min with 10 μM SB431542 (Sigma-Aldrich) or DMSO before treatment with TGF-β1. The cells were then subjected to the various TGF-β1 treatments for 1, 6 or 24 h and lysed in 2× Laemmli buffer, before being resolved on a 4-12% SDS-PAGE gel. Samples were then immunoblotted with antibodies against SMAD2/3 (#3102, Cell Signaling), phosphorylated SMAD2 (pSMAD2, #3108, Cell Signaling), phosphorylated SMAD3 (pSMAD3, #9520, Cell Signaling) and actin (MAB1501R, Millipore). Densitometry was carried out using Quantity One software (version 4.6.6, Bio-Rad). Total RNA was isolated from chondrogenic micromass pellets using TRIZOL reagent (Invitrogen, Life Technologies) according to the manufacturer's protocol. Reverse transcription was carried out on 1 μg RNA using the SuperScript® VILO™ cDNA Synthesis Kit (Invitrogen, Life Technologies) following the manufacturer's instructions, with the incubation at 42° C. being carried out for 2 h instead of 1 h. Each qPCR contained 40 ng cDNA, 1 μl TaqMan® primer-probe mix per gene, and 10 μl Taqman® Fast Universal PCR Master Mix (Applied Biosystems, Life Technologies) in a final volume of 20 μl. Thermal cycling conditions were 95° C. for 20 s, followed by 45 cycles of 95° C. for 3 s and 60° C. for 30 s. Each qPCR was run in duplicate and gene expression was normalized to HPRT1 expression to obtain the ΔCt value. […] Relative expression levels for each primer set were expressed as fold changes by the 2^−ΔΔCt method (36). […]

T1 sequence (P01137 279-390 limits assumed): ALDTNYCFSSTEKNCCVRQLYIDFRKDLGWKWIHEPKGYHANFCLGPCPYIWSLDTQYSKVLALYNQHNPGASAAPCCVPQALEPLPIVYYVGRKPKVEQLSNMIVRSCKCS

| reduction of TGF-β1 binding compared to fully sulfated, full-length heparin (TGF-β1 [1]) | ability to competitively inhibit TGF-β1 binding to immobilized heparin (TGF-β1 [3]) | loss of TGF-β1-binding ability (TGF-β1 [3]; 200 nM TGF-β1 with 5 or 10 μg GAG, relative to heparin) | TGF-β1 binding to immobilized GAG (TGF-β1 [1]; TGF-β1 100, 200 or 400 ng/ml) | Compound | pSMAD2 and pSMAD3 levels [2] | COMP gene expression [4] | SOX9 gene expression [4] |
| --- | --- | --- | --- | --- | --- | --- | --- |
| about 60% | minimal effect |  |  | 2-O-desulfated heparin | increase to levels beyond those seen in heparin-treated cells |  |  |
| approximately 80% |  | approximately 40% |  | 6-O-desulfated heparin | stabilization of pSMAD levels |  |  |
|  |  |  |  | NC(=O)c1ccc(-c2nc(-c3ccc4c(c3)OCO4)c(-c3ccccn3)[nH]2)cc1 [SB431542] |  | reduction | reduction |
|  | abrogated |  | essentially abolished | N-desulfated heparin | did not lead to an increase in pSMAD levels |  |  |
